Tests used:
[1] = tested on: XS 38-206 (RNA, mRNA element) GAGACUGAGGGAGGCAGGCGACGAGUUUGAACUGCGGUACCGGCGGGCAUUCAGUGACCUGACAUCCCAGCUCCACAUCACCCCAGGGACAGCAUAUCAGAGCUUUGAACAGGUAGUGAAUGAACUCUUCCGGGAUGGGGUAAACUGGGGUCGCAUUGUGGCCUUUUUCUCCUUC; experiment: fluorescence enhancement; settings: 100 mM KCl; 10 mM Tris pH 7.0, 25 °C, 10 µM RNA, 1 µM NMM
[2] = tested on: Q2 150-206 (RNA, G4) GAGACUAAUGAACUCUUCCGGGAUGGGGUAAACUGGGGUCGCAUUGUGGCCUUUUUCUCCUUC; experiment: fluorescence enhancement; settings: 100 mM KCl; 10 mM Tris pH 7.0, 25 °C, 10 µM RNA, 1 µM NMM

binding [1]: yes
binding [2]: yes
SMILES: CCc1c(C)c2cc3nc(cc4nc(cc5c(CC)c(C)c(cc1[nH]2)n5C)C(C)=C4CCC(=O)O)C(CCC(=O)O)=C3C

From article PMC9428248 (2022)
